14 compounds from patent US12428394B2, “2,4-disubstituted pyrimidine derivative, preparation method therefor and use thereof” (CHENGDU ZENITAR BIOMEDICAL TECHNOLOGY CO., LTD., priority 2019, dated 2025) can be followed below.

Each structure is given as a SMILES string.

Assay [1] concerns MV4-11 cells (FLT3-ITD+/+). Description: Inhibition of cell proliferation by MTT experiment, MV4-11. The format is cell-based, human. The conditions noted are these: Homo sapiens, MV4-11; MTT, 72 h; read-out: IC50 value on cell proliferation inhibition, MV4-11 FLT3-ITD+/+. From the text: (§1) MV4-11, MOLM-13 and SET-2 were used to determine the influence of the test compound of the present invention on the activity of cancer cells. MV4-11 and MOLM-13 were human leukemia cell lines from American Type Culture Collection (ATCC), expressing FLT3 receptor and containing FLT3-ITD mutation; and SET-2 was a primary thrombocythemia cell purchased from Chengdu Bowerston Biotechnology Co., Ltd., China, continuously expressing JAK2 receptor and containing the mutation of V617F.
(§2) MV4-11, MOLM-13 and SET-2 cells were filled in a 96-well petri dish with 100 μL IMDM as the medium, containing 10% fetal bovine serum (100 mL/bottle, purchased from Grassland Lvye Bio-Engineering Materials Co., Ltd. and cryopreserved at −20° C.), and with 10,000-15,000 cells in each well. […] In each group, 3-5 replicate wells were set and incubated in 5% CO2 at 37° C. for 72 h. At the endpoint, 20 μL MTT (5 mg/mL) was added to each well, and the cells were incubated for another 1-3 h.
(§3) After the inhibition rate of each concentration of compound on cell proliferation activity was calculated, the dose-response curve and IC50 value were fitted by Graphpad prism software according to the compound treatment concentrations and corresponding inhibition rates.

The next assay has as its target T1, FLT3 (Homo sapiens, UniProt P36888).
T1 construct: purchased Eurofins
T1 sequence (P36888 27-993): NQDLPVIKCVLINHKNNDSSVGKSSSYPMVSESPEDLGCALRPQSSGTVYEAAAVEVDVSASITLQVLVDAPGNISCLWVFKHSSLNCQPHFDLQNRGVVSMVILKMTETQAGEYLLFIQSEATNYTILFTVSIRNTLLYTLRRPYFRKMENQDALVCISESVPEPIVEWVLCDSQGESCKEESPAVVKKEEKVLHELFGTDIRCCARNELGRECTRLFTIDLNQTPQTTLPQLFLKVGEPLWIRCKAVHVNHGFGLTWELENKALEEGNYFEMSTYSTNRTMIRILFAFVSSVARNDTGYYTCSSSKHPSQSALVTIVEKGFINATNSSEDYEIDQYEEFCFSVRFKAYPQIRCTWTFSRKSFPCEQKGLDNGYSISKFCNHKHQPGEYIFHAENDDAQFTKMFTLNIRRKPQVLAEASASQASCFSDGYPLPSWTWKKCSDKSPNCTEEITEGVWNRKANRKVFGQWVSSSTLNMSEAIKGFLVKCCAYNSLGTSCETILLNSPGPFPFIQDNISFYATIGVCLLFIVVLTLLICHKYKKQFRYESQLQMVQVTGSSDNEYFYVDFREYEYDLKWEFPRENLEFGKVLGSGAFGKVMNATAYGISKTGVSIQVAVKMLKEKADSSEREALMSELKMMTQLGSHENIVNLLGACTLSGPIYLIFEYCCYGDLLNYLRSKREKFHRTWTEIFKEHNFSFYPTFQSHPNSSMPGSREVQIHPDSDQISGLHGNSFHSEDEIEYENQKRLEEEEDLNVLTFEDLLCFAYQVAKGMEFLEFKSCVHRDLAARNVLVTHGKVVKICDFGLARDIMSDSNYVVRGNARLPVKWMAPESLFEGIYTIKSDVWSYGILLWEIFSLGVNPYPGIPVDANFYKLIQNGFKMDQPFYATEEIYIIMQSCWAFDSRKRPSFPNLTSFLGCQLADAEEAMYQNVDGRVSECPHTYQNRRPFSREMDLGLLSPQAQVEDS
Description: In vitro kinase activity experiment, FLT3. The assay is classed as biochemical. The note with it: 40 min; inhibition rate of enzyme at 500 nM; measured by Eurofins; read-out: Kinase activity @ 500 nM (%) FLT3. As for the experimental part:
(§4) Buffer solution ([…], pH 7.0, 0.2 mm EDTA, 10 mM mncl2), kinase to be tested, substrate of kinase to be tested, 10 mM magnesium acetate and γ33P-ATP solution, and compounds with different concentrations were added to a reaction tube in turn, then MgATP was added to initiate the enzyme reaction process, and incubated at room temperature for 40 min. Then, the reaction was terminated with 5 μl of […], and 10 μl of the reaction solution was titrated onto the Filtermat A membrane, washed with 75 mM phosphate solution for three times, each time for 5 min., and then washed with methanol once. Finally, the Filtermat A membrane was dried and the scintillation count was carried out.

A further assay relates to SET-2 cells (JAK2 V617F). Description: Inhibition of cell proliferation by MTT experiment, SET-2. The assay is classed as cell-based. The conditions noted are these: Homo sapiens, SET-2; MTT, 72 h; read-out: IC50 value on cell proliferation inhibition, SET-2 (V617F).
Excerpt: as §1, §2, §3

For a further assay, the target named is T2, JAK2 (Homo sapiens, UniProt O60674).
T2 construct: purchased Eurofins
T2 sequence (O60674 whole entry): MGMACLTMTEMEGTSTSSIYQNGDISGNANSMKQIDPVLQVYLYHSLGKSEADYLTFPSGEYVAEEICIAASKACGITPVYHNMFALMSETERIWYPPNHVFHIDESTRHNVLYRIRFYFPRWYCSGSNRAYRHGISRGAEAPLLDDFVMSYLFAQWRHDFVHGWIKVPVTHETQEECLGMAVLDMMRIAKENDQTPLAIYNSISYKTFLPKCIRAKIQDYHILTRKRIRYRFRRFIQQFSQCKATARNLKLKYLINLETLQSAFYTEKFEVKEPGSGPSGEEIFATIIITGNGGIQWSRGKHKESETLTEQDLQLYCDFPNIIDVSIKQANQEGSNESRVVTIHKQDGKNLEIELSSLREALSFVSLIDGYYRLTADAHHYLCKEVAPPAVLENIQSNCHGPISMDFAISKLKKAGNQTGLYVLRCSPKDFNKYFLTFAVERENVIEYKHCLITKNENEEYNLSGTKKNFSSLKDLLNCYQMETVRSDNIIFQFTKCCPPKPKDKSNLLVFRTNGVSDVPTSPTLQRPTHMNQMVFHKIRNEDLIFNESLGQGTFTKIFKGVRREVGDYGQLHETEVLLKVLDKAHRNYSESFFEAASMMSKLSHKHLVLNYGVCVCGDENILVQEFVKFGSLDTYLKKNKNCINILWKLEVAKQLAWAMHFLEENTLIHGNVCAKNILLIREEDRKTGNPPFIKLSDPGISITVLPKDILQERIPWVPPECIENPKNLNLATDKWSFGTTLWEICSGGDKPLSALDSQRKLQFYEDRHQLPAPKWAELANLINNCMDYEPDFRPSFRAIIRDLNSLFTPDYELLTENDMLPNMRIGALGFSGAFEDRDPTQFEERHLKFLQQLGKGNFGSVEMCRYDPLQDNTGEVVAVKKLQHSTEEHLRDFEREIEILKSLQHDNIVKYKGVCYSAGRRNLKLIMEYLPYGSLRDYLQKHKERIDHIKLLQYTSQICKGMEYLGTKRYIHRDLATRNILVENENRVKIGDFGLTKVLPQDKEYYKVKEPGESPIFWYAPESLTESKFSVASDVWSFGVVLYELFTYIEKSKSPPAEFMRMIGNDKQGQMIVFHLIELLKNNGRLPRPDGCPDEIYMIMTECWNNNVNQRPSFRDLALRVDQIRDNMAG
Description: In vitro kinase activity experiment, JAK2. The conditions noted are these: inhibition rate of enzyme at 500 nM; measured by Eurofins. The assay is classed as biochemical. The procedure: as §4

Assay [2] relates to MOLM-13 cells (FLT3-ITD-/+). Description: Inhibition of cell proliferation by MTT experiment, MOLM-13. The assay is classed as cell-based, human. The conditions noted are these: Homo sapiens, MOLM-13; MTT, 72 h; read-out: IC50 value on cell proliferation inhibition, MOLM-13 FLT3-ITD-/+.
Excerpt: as §1, §2, §3

On to `CCCCn1cc(-c2nc(Nc3ccc(N4CCN(C)CC4)c(F)c3)ncc2F)cn1` [CLJ-10, 5-fluoro-N-(3-fluoro-4-(4-methylpiperazine-1-yl)phenyl)-4-(1-butyl-1H-pyrazol-4-yl) pyrimidine-2-amine], for which the IC50 in assay [1] was more than 1000 nM; with SET-2 cells (JAK2 V617F) it was more than 1000 nM; in assay [2], 100 to 1000 nM. On FLT3, the inhibition at 0.5 µM came to 25%. Also, the “Kinase activity @ 500 nM (%) JAK2” value on JAK2 turned out to be 37%.
Consider `CCCN1CCC(n2cc(-c3nc(Nc4ccc(N5CCN(C)CC5)cc4)ncc3F)cn2)CC1` [CLJ-11, 5-fluoro-N-(4-(4-methylpiperazine-1-yl)phenyl)-4-(1-(1-propylpiperidine-4-yl)-1H-pyrazole-4-yl) pyrimidine-2-amine], for which the IC50 in assay [1] is 10 to 100 nM; in the assay on SET-2 cells (JAK2 V617F) it was more than 1000 nM; in assay [2] it was 100 to 1000 nM. In addition, at FLT3, the inhibition at 0.5 µM stood at 94%. Besides, on JAK2, the “Kinase activity @ 500 nM (%) JAK2” value is recorded as 78%.
The matching figures for `CCCN1CCC(n2cc(-c3nc(Nc4ccc(N5CCN(C)CC5)c(F)c4)ncc3F)cn2)CC1` [CLJ-12, 5-fluoro-N-(3-fluoro-4-(4-methylpiperazine-1-yl)pheny)-4-(1-(1-propylpiperidine-4-yl)-1H-pyrazole-4-yl) pyrimidine-2-amine]: more than 1000 nM, more than 1000 nM, more than 1000 nM, 20% and 27%.
As for `CCCCN1CCC(n2cc(-c3nc(Nc4ccc(N5CCN(C)CC5)c(F)c4)ncc3F)cn2)CC1` [CLJ-13, 5-fluoro-N-(3-fluoro-4-(4-methylpiperazine-1-yl)phenyl)-4-(1-(1-butylpiperidine-4-yl)-1H-pyrazole-4-yl) pyrimidine-2-amine], the figures for the IC50 (in assay [1]; with SET-2 cells (JAK2 V617F); in assay [2]) were 10 to 100 nM, more than 1000 nM and 100 to 1000 nM, respectively. Besides, on FLT3, the inhibition at 0.5 µM worked out at 95%. The “Kinase activity @ 500 nM (%) JAK2” value at JAK2 worked out at 89%.
Taken in the same sequence, the figures for `Cc1c(-c2nc(Nc3ccc(N4CCN(C5CCN(C)CC5)CC4)c(F)c3)ncc2F)cnn1C` [CLJ-15] were 10 to 100 nM, more than 1000 nM, 100 to 1000 nM, 94% and 93%.
The matching figures for `CN1CCN(c2ccc(Nc3ncc(F)c(-c4cnn(C5CCCC5)c4)n3)cc2F)CC1` [CLJ-16, 5-fluoro-N-(3-fluoro-4-(4-methylpiperazine-1-yl)phenyl)-4-(1-cyclopentyl-1H-pyrazol-4-yl) pyrimidine-2-amine]: 10 to 100 nM, more than 1000 nM, 100 to 1000 nM, 95% and 96%.
The matching figures for `CCN1CCN(c2ccc(Nc3ncc(F)c(-c4cnn(C5CCCC5)c4)n3)cc2F)CC1` [CLJ-17, 5-fluoro-N-(3-fluoro-4-(4-ethylpiperazine-1-yl)phenyl)-4-(1-cyclopentyl-1H-pyrazole-4-yl) pyrimidine-2-amine]: 10 to 100 nM, 100 to 1000 nM, 100 to 1000 nM, 94% and 90%.
As to `CN(C)C1CCN(c2ccc(Nc3ncc(F)c(-c4cnn(C5CCCC5)c4)n3)cc2F)CC1` [CLJ-18, 5-fluoro-N-(3-fluoro-4-(4-dimethylaminopiperidine-1-yl)phenyl)-4-(1-cyclopentyl-1H-pyrazole-4-yl) pyrimidine-2-amine], the IC50 in assay [1] lay within 10 to 100 nM; in the assay with SET-2 cells (JAK2 V617F), 100 to 1000 nM; in assay [2], 100 to 1000 nM. The inhibition at 0.5 µM at FLT3 stood at 93%. Further, at JAK2, the “Kinase activity @ 500 nM (%) JAK2” value came to 93%.
With `CC(C)n1cc(-c2nc(Nc3cccc(N4CCN(C)CC4)c3)ncc2F)cn1` [CLJ-19, 5-fluoro-N-(3-(4-methylpiperazine-1-yl)phenyl)-4-(1-isopropyl-1H-pyrazol-4-yl) pyrimidine-2-amine], the IC50 in assay [1] is 10 to 100 nM; in the assay with SET-2 cells (JAK2 V617F), 100 to 1000 nM; in assay [2] it was 100 to 1000 nM. For the same compound, on FLT3, the inhibition at 0.5 µM came to 95%. For the same compound, at JAK2, the “Kinase activity @ 500 nM (%) JAK2” value came out at 92%.
Take `CCCCN1CCN(c2ccc(Nc3ncc(F)c(-c4cnn(C(C)C)c4)n3)nc2)CC1` [CLJ-20, 5-fluoro-N-(5-(4-butylpiperazine-1-yl)pyridine-2-yl)-4-(1-isopropyl-1H-pyrazole-4-yl) pyrimidine-2-amine]: the IC50 (in assay [1]; in the assay on SET-2 cells (JAK2 V617F); in assay [2]) was 100 to 1000 nM throughout. For the same compound, the inhibition at 0.5 µM on FLT3 was 95%. For the same compound, the “Kinase activity @ 500 nM (%) JAK2” value at JAK2 was found to be 97%.
With `CCN1CCN(Cc2ccc(Nc3ncc(F)c(-c4cnn(C(C)C)c4)n3)nc2)CC1` [CLJ-21, 5-fluoro-N-(5-((4-ethylpiperazine-1-yl)methyl)pyridine-2-yl)-4-(1-isopropyl-1H-pyrazole-4-yl) pyrimidine-2-amine], the IC50 (in assay [1]; with SET-2 cells (JAK2 V617F); in assay [2]) was 100 to 1000 nM each time. Besides, the inhibition at 0.5 µM on FLT3 was 75%. The “Kinase activity @ 500 nM (%) JAK2” value on JAK2 turned out to be 89%.
In the case of `CC(C)n1cc(-c2nc(Nc3ccc(N4CCN(C)CC4)cc3)ncc2F)cn1` [CLJ-22, 5-fluoro-N-(4-(4-methylpiperazine-1-yl)phenyl)-4-(1-isopropyl-1H-pyrazol-4-yl) pyrimidine-2-amine], the IC50 (in assay [1]; in the assay on SET-2 cells (JAK2 V617F); in assay [2]) was 100 to 1000 nM throughout. Also, at FLT3, the inhibition at 0.5 µM is 80%. Moreover, the “Kinase activity @ 500 nM (%) JAK2” value at JAK2 worked out at 79%.
For `CC(C)n1cc(-c2nc(Nc3ccc(N4CCN(C)CC4)cc3F)ncc2F)cn1` [CLJ-23, 5-fluoro-N-(2-fluoro-4-(4-methylpiperazine-1-yl)phenyl)-4-(1-isopropyl-1H-pyrazol-4-yl) pyrimidine-2-amine], the IC50 in assay [1] is 100 to 1000 nM; in the assay with SET-2 cells (JAK2 V617F), 100 to 1000 nM; in assay [2] it was more than 1000 nM. Further, at FLT3, the inhibition at 0.5 µM amounted to 40%. Also, the “Kinase activity @ 500 nM (%) JAK2” value at JAK2 came out at 49%.
As for `CC(C)n1cc(-c2nc(Nc3ccc(N4CCN(C)CC4)c(F)c3)ncc2F)cn1` [CLJ-24, 5-fluoro-N-(3-fluoro-4-(4-methylpiperazine-1-yl)phenyl)-4-(1-isopropyl-1H-pyrazol-4-yl) pyrimidine-2-amine], the IC50 in assay [1] was 100 to 1000 nM; in the assay with SET-2 cells (JAK2 V617F), more than 1000 nM; in assay [2] it was more than 1000 nM. At FLT3, the inhibition at 0.5 µM turned out to be 32%. For the same compound, the “Kinase activity @ 500 nM (%) JAK2” value at JAK2 is 28%.
